Measurements: DBAASP
In brackets after ≈: the same amount, converted by molar mass. Values belong to the compound of their own block, whether it stands above or below them.

Key:
Experiment in all cases: ≥ marks a high value that may be exact or a test limit, other limits are often not marked, values filed in µg/mL are converted to µM
[1] = test system: Microsporum canis
[2] = test system: Micrococcus luteus A270
[3] = test system: Enterobacter cloacae beta-12
[4] = test system: Serratia marcescens ATCC 4112
[5] = test system: Beauveria bassiana
[6] = test system: Salmonella enterica subsp. arizonae ATCC 13314
[7] = test system: Bacillus subtilis ATCC 6633
[8] = test system: Staphylococcus aureus ATCC 29213
[9] = test system: Alcaligenes faecalis ATCC 8750
[10] = test system: Trichophyton mentagrophytes
[11] = test system: Salmonella enterica subsp. enterica serovar Typhimurium ATCC 14028
[12] = test system: Bacillus megaterium ATCC 10778
[13] = test system: Saccharomyces cerevisiae PM340
[14] = test system: Candida tropicalis IOC 4560
[15] = test system: Staphylococcus sciuri
[16] = test system: Staphylococcus pseudintermedius MW767056
[17] = test system: Escherichia coli SBS 363
[18] = test system: Staphylococcus simulans
[19] = test system: Escherichia coli D31
[20] = test system: Pseudomonas aeruginosa ATCC 27853
[21] = test system: Proteus mirabilis
[22] = test system: Candida albicans MDM8
[23] = test system: Staphylococcus haemolyticus
[24] = test system: Aspergillus niger
[25] = test system: Microsporum canis MW768151
[26] = test system: Staphylococcus cohnii MW767053
[27] = test system: Staphylococcus pseudintermedius
[28] = test system: Pseudomonas aeruginosa ATCC 19660
[29] = test system: Streptococcus pneumoniae ATCC 49619
[30] = test system: Staphylococcus epidermidis ATCC 51625
[31] = test system: Klebsiella aerogenes ATCC 13048
[32] = test system: Enterococcus faecium ATCC 700221
[33] = test system: Acinetobacter baumannii ATCC 17978D-5
[34] = test system: Staphylococcus aureus ATCC 33591
[35] = test system: Pseudomonas aeruginosa 21328
[36] = test system: Pseudomonas aeruginosa CICC 11431
[37] = test system: Pseudomonas aeruginosa CICC 11421
[38] = test system: Pseudomonas aeruginosa 25349
[39] = test system: Escherichia coli ATCC 25922
[40] = test system: Pseudomonas aeruginosa CICC 21630
[41] = test system: Pseudomonas aeruginosa CICC 10419
[42] = test system: Pseudomonas aeruginosa CICC 21625
[43] = test system: Pseudomonas aeruginosa CICC 11411
[44] = test system: Pseudomonas aeruginosa PAO1
[45] = test system: Staphylococcus aureus NCTC 8325
[46] = test system: Escherichia coli MG1655
[47] = test system: Pseudomonas aeruginosa PA7
[48] = test system: Staphylococcus aureus ATCC 25923
[49] = test system: Candida albicans ATCC 5314
[50] = test system: Staphylococcus aureus MR

Structure (SMILES): CC(C)[C@H](N)C(=O)N[C@@H](C)C(=O)N[C@@H](CCC(=O)O)C(=O)N[C@@H](C)C(=O)N[C@@H](CCCN=C(N)N)C(=O)N[C@@H](CCC(N)=O)C(=O)NCC(=O)N[C@@H](CO)C(=O)N[C@@H](Cc1ccccc1)C(=O)N[C@@H](CO)C(=O)N[C@@H](Cc1ccc(O)cc1)C(=O)O [VAEARQGSFSY]
MIC [1]: 0.824 µM (≈ 1 µg/mL)
MIC [2]: 6.24 µM (≈ 7.58 µg/mL)
MIC [3]: 25 µM (≈ 30.3 µg/mL)
MIC [4]: 25 µM (≈ 30.3 µg/mL)
MIC [5]: 25 µM (≈ 30.3 µg/mL)
MIC [6]: 25 µM (≈ 30.3 µg/mL)
MIC [7]: 25 µM (≈ 30.3 µg/mL)
MIC [8]: 6.24 µM (≈ 7.58 µg/mL)
MIC [9]: 12.5 µM (≈ 15.2 µg/mL)
MIC [10]: 0.412 µM (≈ 0.5 µg/mL)
MIC [11]: 12.5 µM (≈ 15.2 µg/mL)
MIC [12]: 12.5 µM (≈ 15.2 µg/mL)
MIC [13]: 25 µM (≈ 30.3 µg/mL)
MIC [14]: 25 µM (≈ 30.3 µg/mL)
MIC [15]: ≥ 211 µM
MIC [16]: ≥ 105 µM
MIC [17]: 25 µM (≈ 30.3 µg/mL)
MIC [18]: ≥ 105 µM
MIC [19]: 12.5 µM (≈ 15.2 µg/mL)
MIC [20]: 12.5 µM (≈ 15.2 µg/mL)
MIC [21]: ≥ 211 µM
MIC [22]: 25 µM (≈ 30.3 µg/mL)
MIC [23]: ≥ 211 µM
MIC [24]: 25 µM (≈ 30.3 µg/mL)
MIC [25]: 0.412 µM (≈ 0.5 µg/mL)
MIC [26]: ≥ 211 µM
MIC [27]: ≥ 105 µM

Structure (SMILES): C[C@H](NC(=O)[C@H](Cc1ccccc1)NC(=O)[C@H](C)NC(=O)[C@@H](N)Cc1ccccc1)C(=O)N[C@@H](Cc1ccccc1)C(=O)N[C@@H](C)C(=O)N[C@@H](Cc1ccccc1)C(=O)N[C@@H](CCCCN)C(=O)N[C@@H](CCCCN)C(=O)N[C@@H](C)C(=O)N[C@@H](Cc1ccccc1)C(=O)N[C@@H](CCCCN)C(=O)N[C@@H](CCCCN)C(=O)N[C@@H](Cc1ccccc1)C(=O)N[C@@H](CCCCN)C(=O)N[C@@H](CCCCN)C(=O)N[C@@H](C)C(=O)N[C@@H](Cc1ccccc1)C(=O)N[C@@H](CCCCN)C(=O)N[C@@H](CCCCN)C(=O)N[C@@H](C)C(=O)N[C@@H](Cc1ccccc1)C(=O)O [FAFAFAFKKAFKKFKKAFKKAF]
MIC [28]: 24.2 µM (≈ 64 µg/mL)
MIC [29]: 24.2 µM (≈ 64 µg/mL)
MIC [30]: 1.51 µM (≈ 4 µg/mL)
MIC [31]: 24.2 µM (≈ 64 µg/mL)
MIC [32]: 3.02 µM (≈ 8 µg/mL)
MIC [33]: 0.755 µM (≈ 2 µg/mL)
MIC [20]: > 24.2 µM
MIC [34]: 6.04 µM (≈ 16 µg/mL)

Structure (SMILES): CC[C@H](C)[C@H](N)C(=O)N[C@@H](CCCCN)C(=O)N[C@H](C(=O)N1CCC[C@H]1C(=O)N[C@@H](C)C(=O)N[C@H](C(=O)N[C@H](C(=O)N[C@@H](CCCCN)C(=O)N[C@@H](CC(=O)O)C(=O)N[C@H](C(=O)N[C@@H](CCC(N)=O)C(=O)N[C@@H](CCCCN)C(=O)N[C@@H](CCCCN)C(=O)N[C@H](C(=O)N[C@@H](C)C(=O)N[C@@H](CCCCN)C(=O)NCC(=O)N[C@H](C(=O)N[C@H](C(=O)N[C@@H](CO)C(=O)N[C@H](C(=O)N[C@H](C(=O)N[C@@H](C)C(=O)N[C@@H](CC(=O)O)C(=O)N[C@@H](C)C(=O)N[C@@H](CC(C)C)C(=O)N[C@@H](CO)C(=O)N[C@@H](CCCCN)C(=O)N[C@@H](CO)C(=O)O)C(C)C)[C@@H](C)O)[C@@H](C)CC)C(C)C)C(C)C)[C@@H](C)O)C(C)C)[C@@H](C)CC)C(C)C [IKVPAIVKDTQKKVAKGVISTVADALSKS]
MIC [44]: > 512 µM
MIC [45]: ≥ 512 µM
MIC [46]: ≥ 512 µM
MIC [47]: ≥ 512 µM

The next lines start with the values.

MIC [35]: ≥ 102 µM
MIC [36]: 3.19 µM (≈ 8 µg/mL)
MIC [37]: ≥ 102 µM
MIC [38]: 12.7 µM (≈ 32 µg/mL)
MIC [8]: 6.37 µM (≈ 16 µg/mL)
MIC [39]: 12.7 µM (≈ 32 µg/mL)
MIC [40]: 6.37 µM (≈ 16 µg/mL)
MIC [41]: ≥ 102 µM
MIC [42]: ≥ 102 µM
MIC [20]: 1.59 µM (≈ 4 µg/mL)
MIC [43]: ≥ 102 µM
Structure (SMILES): NC(=O)[C@H](Cc1c[nH]c2ccccc12)NC(=O)[C@H](CCCN=C(N)N)NC(=O)[C@H](CCCN=C(N)N)NC(=O)[C@H](Cc1c[nH]c2ccccc12)NC(=O)[C@H](CCCN=C(N)N)NC(=O)[C@H](CCCN=C(N)N)NC(=O)[C@H](CCCN=C(N)N)NC(=O)[C@H](Cc1c[nH]c2ccccc12)NC(=O)[C@H](CCCN=C(N)N)NC(=O)[C@H](CCCN=C(N)N)NC(=O)[C@H](CCCN=C(N)N)NC(=O)[C@H](Cc1c[nH]c2ccccc12)NC(=O)[C@H](CCCN=C(N)N)NC(=O)[C@H](CCCN=C(N)N)NC(=O)[C@@H](N)Cc1c[nH]c2ccccc12 [WRRWRRRWRRRWRRW]

MIC [48]: 26.4 µM (≈ 64 µg/mL)
MIC [49]: 26.4 µM (≈ 64 µg/mL)
MIC [50]: 26.4 µM (≈ 64 µg/mL)
Structure (SMILES): CC[C@H](C)[C@H](NC(=O)[C@@H](NC(=O)[C@H](CCCN=C(N)N)NC(=O)[C@H](Cc1ccccc1)NC(=O)[C@@H](N)Cc1ccc(O)cc1)[C@@H](C)O)C(=O)N[C@@H](CCCN=C(N)N)C(=O)N[C@@H](CCCN=C(N)N)C(=O)N[C@@H](Cc1ccccc1)C(=O)N[C@@H](Cc1ccccc1)C(=O)N[C@@H](CCCCN)C(=O)N[C@@H](CCCCN)C(=O)N[C@@H](CC(C)C)C(=O)N[C@@H](Cc1ccccc1)C(=O)N[C@@H](CCCCN)C(=O)N[C@H](C(=O)N[C@@H](CC(C)C)C(=O)N[C@@H](CCCCN)C(=O)N[C@@H](CCCCN)C(N)=O)[C@@H](C)O [YFRTIRRFFKKLFKTLKK]
